Legend:
rumen fluid = assay: in vitro rumen fluid volatile fatty acid production; design: species or system steer; conditions: 1 ppm in rumen fluid, 16 hours at 38° C.
Description: As discussed hereinabove, efficiency of carbohydrate utilization in ruminants is increased by treatments which stimulate the amimal's rumen flora to produce propionate compounds rather than acetate or butyrate compounds. The efficiency of feed use can be monitored by observing the production and concentration of propionate compounds in the rumen, using the following methods:
Remen fluid is obtained from a steer with a surgically-installed fistula opening into the rumen. The steer is maintained on a high-grain ration. A sample of rumen fluid is strained through four layers of cheesecloth, and the filtrate is collected. The particulate matter retained by the cheesecloth is resuspended in enough physiological buffer to return it to the original volume of the rumen fluid, and this suspension is strained again. The buffer used has the following composition:
The two filtrates are combined and allowed to stand until particulate matter separates to the top. The clear layer is separated, diluted with the same buffer (1:1) and then adjusted to between pH 6.8 to 7.0.
The diluted rumen fluid (10 ml) is placed in a 25-ml flask with 40 mg of the above-described feed, an additional 1 mg of soybean protein, and the compound to be tested. Four replicate flasks are used per treatment. Two sets of four control flasks each are also employed. A zero-time control and an incubated 16-hour control are used. All test flasks are incubated for 16 hours at 38° C. […] The samples are allowed to settle, and the supernatants are analyzed by gas chromatography for propionate, acetate, and butyrate compounds.

[1] = test system: Staphylococcus aureus (H-Heatley) NRRL B-314; assay: turbidometric assay on semiautomated system (Autoturb), relative gram-positive activity; format: cell-based; conditions: relative to A-28086 factor A (standard); nutrient broth pH 7, four hours at 37° C.
Description: The C2 -C6 -acyl ester derivatives of A-28086 factor A also have antibacterial and antifungal activity. In one aspect, these derivatives have increased gram-positive activity. The relative gram-positive activities of certain of these derivatives were compared with the activity of factor A. The compounds were tested by turbidometric assay on a semiautomated system (Autoturb® microbiological assay system, Elanco) described by N. R. Kuzel and F. W. Kavanaugh in J. Pharmaceut. Sci. 60 (5), 764 and 767 (1971). In testing the A-28086 antibiotics, the following test parameters were used: Staphylococcus aureus (H-Heatley) NRRL B-314 in a nutrient broth medium (pH 7), incubated for four hours at 37° C. Test samples and the standard were dissolved in methanol-water (10:90). The standard, A-28086 factor A, was presented to the Autoturb® carrousel at concentrations of 2, 3, 4, and 5 mcg/ml. Test compounds were diluted to contain approximately 3 or 4 mcg of activity per ml, as presented to the carrousel. The relative activities of test compounds, as compared to that of the standard, are given below: […]

Structure (SMILES) | Ratio of Treated to Control, Molar % acetate (rumen fluid) | Ratio of Treated to Control, Molar % butyrate (rumen fluid) | Ratio of Treated to Control, Molar % propionate (rumen fluid) | Ratio of Treated to Control, Total VFA mM/l (rumen fluid) | Relative G+ Activity [1]
CCCC(=O)OC1C=CC2(OC(C(CC)C(=O)C(C)C(O)C(C)C3OC(C(CC)C(=O)O)C(C)CC3C)C(C)CC2C)OC12CCC(C)(C1CCC(O)(CC)C(C)O1)O2 (stereo not shown) | 0.91 | 0.81 | 1.56 | 1.19 | 8
CCCCCC(=O)OC1C=CC2(OC(C(CC)C(=O)C(C)C(O)C(C)C3OC(C(CC)C(=O)O)C(C)CC3C)C(C)CC2C)OC12CCC(C)(C1CCC(O)(CC)C(C)O1)O2 (stereo not shown) | 0.86 | 0.97 | 1.57 | 0.99 | 20
CCC(=O)OC1C=CC2(OC(C(CC)C(=O)C(C)C(O)C(C)C3OC(C(CC)C(=O)O)C(C)CC3C)C(C)CC2C)OC12CCC(C)(C1CCC(O)(CC)C(C)O1)O2 (stereo not shown) | 0.90 | 0.68 | 1.73 | 1.25 | 7
CCCCC(=O)OC1C=CC2(OC(C(CC)C(=O)C(C)C(O)C(C)C3OC(C(CC)C(=O)O)C(C)CC3C)C(C)CC2C)OC12CCC(C)(C1CCC(O)(CC)C(C)O1)O2 (stereo not shown) | 0.92 | 0.79 | 1.55 | 1.18 | 14
CCC(C(=O)O)C1OC(C(C)C(O)C(C)C(=O)C(CC)C2OC3(C=CC(OC(C)=O)C4(CCC(C)(C5CCC(O)(CC)C(C)O5)O4)O3)C(C)CC2C)C(C)CC1C (stereo not shown) [A-28086 factor A acetyl ester derivative] | 0.79 | 0.76 | 2.04 | 1.04 | 2.5

— patent US4085224A, “Method of increasing feed utilization” (Eli Lilly and Company, priority 1976, dated 1978)
